# Laboratory results reported in patent US7833553B2, “Sulfur-containing proanthocyanidin oligomer compositon and process for producing the same” (Amino Up Chemical Co. Ltd., priority 2003, dated 2010).
# Assays:
# [1] = Superoxide dismutase (SOD)-like activity (SOD Test Wako kit); assay type: biochemical
# Protocol: With respect to Substances 1 to 4 and Comparative Substances 1 and 2 which were the same as those used in Test Example 1, SOD-like activity was measured using a blood SOD activity measuring kit (SOD Test Wako: manufactured by Wako Pure Chemical Industries, Ltd.). SOD-like activity was calculated according to the following formula and 50% effective concentration (EC50) was calculated based on the relationship with the concentration of test sample. SOD-like activity(%)=[(1−(absorbance of test sample))/(absorbance of control)]×100
# EC50 was calculated from SOD-like activities in gradual concentrations of each sample.
# [2] = DPPH radical scavenging effect; assay type: biochemical; details: 60 μM DPPH, room temperature 30 minutes, absorbance 520 nm
# Protocol: 100 μl of a DPPH solution (60 μM ethanol solution) was charged in a 96-well microplate and 100 μl of an ethanol solution as a test sample or 100 μl of ethanol as a control was added, and the whole was gently mixed and left to stand at room temperature for 30 minutes. Then, absorbance at 520 nm was measured and a DPPH radical scavenging ability was calculated according to the following formula. 50% effective concentration (EC50) was calculated from the DPPH radical scavenging ability and concentrations of gradually diluted test samples. DPPH radical scavenging ability(%)=[(1−(absorbance of test sample))/(absorbance of control)]×100
# 50% effective concentration (EC50) was calculated from DPPH radial scavenging abilities in gradual concentrations of each sample.
substance,measurement,setting,value
catechin [Comparative Substance 2],EC50 in SOD-like activity,[1],62.0 µg/mL
same,EC50 in DPPH radical scavenging,[2],1.71 µg/mL
